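Interpolation was linear, between the two tested concentrations surrounding the appropriate level; five concentrations were tested over 48 hours in 96-well plates. The concentration for 50% growth inhibition is given as GI50.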 The source made the active and inactive calls. Rule as the data show it: active = GI50 up to about 1.1 µM and inactive = higher.
Tests used:
Assay in all cases: NCI anticancer screen, dose series, 48 h
OVCAR-8 = system: OVCAR-8
SNB-19 = system: SNB-19
SF-295 = system: SF-295
ACHN = system: ACHN
NCI-H23 = system: NCI-H23
COLO 205 = system: COLO 205
SR = system: SR
CCRF-CEM = system: CCRF-CEM
NCI-H460 = system: NCI-H460
RXF 393 = system: RXF 393
IGROV-1 = system: IGROV-1
SF-268 = system: SF-268
RPMI-8226 = system: RPMI-8226
KM12 = system: KM12
UACC-257 = system: UACC-257
SW-620 = system: SW-620
TK-10 = system: TK-10
MDA-MB-231 = system: MDA-MB-231
MDA-MB-435 = system: MDA-MB-435
Malme-3M = system: Malme-3M

Measured: GI50

O=c1c2c3c(sc2nc2n1sc1nc4sc5c(c4c(=O)n12)CCCC5)CCCC3
inactive: OVCAR-8 56.6 µM | SNB-19 92.9 µM | SF-295 64.6 µM | ACHN 61.5 µM | NCI-H23 30.6 µM | COLO 205 26.6 µM | SR 25.8 µM | CCRF-CEM 24.4 µM | NCI-H460 > 100 µM | RXF 393 21 µM | IGROV-1 > 100 µM | SF-268 42 µM | RPMI-8226 22.2 µM | KM12 > 89.7 µM | UACC-257 > 96.8 µM | SW-620 28.8 µM | TK-10 89.1 µM | MDA-MB-231 25.9 µM | MDA-MB-435 51.8 µM

O=C(C/C(=N/O)C(=O)NC1=C(Cl)C(=O)c2ccccc2C1=O)CC(c1ccccc1)c1c(O)c2ccccc2oc1=O (stereo not drawn)
inactive: OVCAR-8 10.8 µM | SNB-19 19.1 µM | SF-295 7.93 µM | ACHN 19.8 µM | NCI-H23 3.63 µM | Malme-3M 2.08 µM | COLO 205 13.4 µM | SR 7.35 µM | CCRF-CEM 4.56 µM | NCI-H460 3.15 µM | RXF 393 13.2 µM | IGROV-1 4.52 µM | SF-268 7.35 µM | RPMI-8226 19.1 µM | KM12 3.5 µM | UACC-257 18.5 µM | SW-620 6.58 µM | MDA-MB-231 4.57 µM | MDA-MB-435 2.22 µM

COc1ccc(NCc2cccc3c(=O)c4ccc(Cl)cc4oc23)cc1
inactive: OVCAR-8 > 100 µM | SF-295 > 100 µM | ACHN > 100 µM | NCI-H23 > 100 µM | Malme-3M > 100 µM | COLO 205 > 100 µM | SR > 100 µM | CCRF-CEM > 100 µM | IGROV-1 > 100 µM | RPMI-8226 > 100 µM | KM12 > 100 µM | UACC-257 > 100 µM | SW-620 > 100 µM | TK-10 > 100 µM | MDA-MB-231 > 100 µM | MDA-MB-435 > 100 µM

CCOC(=O)c1cccc([N+](=O)[O-])c1N
inactive: OVCAR-8 > 100 µM | SNB-19 > 100 µM | SF-295 > 100 µM | ACHN > 100 µM | NCI-H23 > 100 µM | Malme-3M 19.1 µM | COLO 205 > 100 µM | SR > 100 µM | CCRF-CEM > 100 µM | NCI-H460 > 100 µM | IGROV-1 > 100 µM | RPMI-8226 > 100 µM | KM12 > 100 µM | UACC-257 > 100 µM | SW-620 > 100 µM | TK-10 > 100 µM | MDA-MB-231 > 100 µM | MDA-MB-435 > 100 µM

Cc1ccc2c(c1)[nH]c(=S)n2C=C1C(=O)CC(C)(C)CC1=O
inactive: OVCAR-8 > 100 µM | SNB-19 > 100 µM | SF-295 > 100 µM | ACHN > 100 µM | NCI-H23 > 100 µM | COLO 205 > 100 µM | SR > 100 µM | CCRF-CEM > 100 µM | NCI-H460 > 100 µM | RXF 393 > 100 µM | IGROV-1 15.8 µM | SF-268 > 100 µM | KM12 > 100 µM | UACC-257 > 100 µM | SW-620 > 100 µM | TK-10 > 100 µM | MDA-MB-231 > 100 µM | MDA-MB-435 > 100 µM

Nc1nc(O)c2c(n1)NCN(CCCN1CCOCC1)C2
inactive: OVCAR-8 > 100 µM | SNB-19 > 100 µM | SF-295 > 100 µM | ACHN > 100 µM | NCI-H23 > 100 µM | Malme-3M > 100 µM | COLO 205 > 100 µM | SR > 100 µM | NCI-H460 > 100 µM | IGROV-1 > 100 µM | SF-268 > 100 µM | RPMI-8226 > 100 µM | KM12 > 100 µM | UACC-257 > 100 µM | SW-620 > 100 µM | TK-10 > 100 µM | MDA-MB-231 > 100 µM | MDA-MB-435 > 100 µM

Cc1cc(C)c2c(O)c(S(=O)(=O)c3ccc(Cl)cc3)c(=O)oc2c1
inactive: OVCAR-8 29.2 µM | SNB-19 52.1 µM | SF-295 36.5 µM | NCI-H23 84.1 µM | Malme-3M 59.7 µM | COLO 205 > 100 µM | SR 82.4 µM | CCRF-CEM 42.5 µM | NCI-H460 52.2 µM | RXF 393 > 100 µM | IGROV-1 31.7 µM | SF-268 40.2 µM | RPMI-8226 60.1 µM | KM12 36.1 µM | UACC-257 > 100 µM | SW-620 68.7 µM | MDA-MB-231 78.7 µM | MDA-MB-435 51.8 µM

COc1cc2c(c(O)c1OC)C(O)C1CCC(=O)N1C2c1cccc2ccccc12 (stereo not drawn)
inactive: OVCAR-8 > 100 µM | SNB-19 > 100 µM | SF-295 99.8 µM | ACHN 82.2 µM | NCI-H23 > 100 µM | Malme-3M 36.9 µM | COLO 205 > 100 µM | SR > 100 µM | CCRF-CEM 81.7 µM | NCI-H460 > 100 µM | RXF 393 57.9 µM | IGROV-1 > 100 µM | SF-268 > 100 µM | RPMI-8226 > 100 µM | KM12 34.9 µM | UACC-257 > 100 µM | SW-620 > 100 µM | MDA-MB-231 89.5 µM | MDA-MB-435 51.4 µM

O=C1OC(C2Cc3ccc4c(c3C2=O)CCCC4)c2ccccc21 (stereo not drawn)
inactive: OVCAR-8 43.9 µM | SNB-19 44.5 µM | SF-295 40.1 µM | ACHN 44.6 µM | NCI-H23 42.7 µM | Malme-3M 24 µM | COLO 205 46.8 µM | SR > 10 µM | CCRF-CEM 15.3 µM | NCI-H460 27.3 µM | IGROV-1 44.3 µM | SF-268 49.2 µM | RPMI-8226 42.5 µM | KM12 44 µM | UACC-257 52.2 µM | SW-620 29.7 µM | TK-10 73.5 µM | MDA-MB-231 36.2 µM | MDA-MB-435 38.8 µM

O=C(CCc1ccc(O)c(O)c1)c1ccc(O)c(O)c1O
inactive: OVCAR-8 22.9 µM | SNB-19 34.4 µM | SF-295 18.3 µM | ACHN 14.3 µM | NCI-H23 21.4 µM | Malme-3M 28.4 µM | COLO 205 17.7 µM | SR 24.9 µM | CCRF-CEM 10.2 µM | NCI-H460 13 µM | IGROV-1 25.1 µM | SF-268 16.6 µM | KM12 17.3 µM | UACC-257 31.5 µM | SW-620 27.4 µM | TK-10 19 µM | MDA-MB-231 20.3 µM | MDA-MB-435 18.9 µM

Oc1cnc2c(O)cccc2c1 [JINEOL]
inactive: OVCAR-8 26.2 µM | SNB-19 58.9 µM | SF-295 36.8 µM | ACHN 27.5 µM | Malme-3M 34.8 µM | SR 40.6 µM | NCI-H460 31.9 µM | IGROV-1 20.3 µM | SF-268 33.2 µM | RPMI-8226 38.1 µM | KM12 12.8 µM | UACC-257 56.6 µM | SW-620 45.5 µM | TK-10 53.1 µM | MDA-MB-231 52 µM | MDA-MB-435 80.2 µM

Source: ChEMBL document CHEMBL1201862, “PubChem BioAssay data set” (2004)
